{"source": "patent US11345706B2", "about": "“Crystalline forms of Acalabrutinib” (Apotex Inc., priority 2017, dated 2022)", "origin": "cited, not measured here", "data": [{"smiles": "CC#CC(=O)N1CCC[C@H]1c1nc(-c2ccc(C(=O)Nc3ccccn3)cc2)c2c(N)nccn12", "note": "[Acalabrutinib, 4-{8-amino-3-[(2S)-1-(but-2-ynoyl)pyrrolidin-2-yl]imidazo[1,5-a]pyrazin-1-yl}-N-(pyridin-2-yl)benzamide]", "values": [{"measurement": "Biopharmaceutics Classification System (BCS) solubility classification", "value": "poorly soluble drug"}, {"measurement": "pH-dependent solubility", "setting": "pH values of greater than 4, reported in U.S. Pat. No. 9,796,721 B2", "value": "practically insoluble"}]}]}
